Columns and labels:
Format in all cases: cell-based, human
[1] = system: SKOV3 (ovarian adenocarcinoma); assay: CIMA assay (tetrazolium reduction, cell viability, 72 h); conditions: SKOV
Method: (§1) Prepared extracts were assessed following chronic exposure conditions in which cells were seeded at 2×10^3 cells/well (96 wells-plate) and incubated with test compounds for 72 h. Each compound was evaluated over a range of concentrations (0, 10, 25, 50 or 100 μg/ml). Cell proliferation was initially assessed using a standard colorimetric indicator of metabolic activity (CIMA) assay. In this assay, tetrazole reduction was evaluated as a measure of metabolic function that evaluates mitochondrial activity to determine the extent of cell proliferation within a culture. This assay is based on the reduction of yellow tetrazolium salt to purple formazan by mitochondrial reductases enzyme in viable cells, resulting in a color change that confers a change in absorbance. Seven human cell lines were selected for primary evaluation: U373 (glioblastoma-astrocytoma), A549 (lung carcinoma), THP-1 (acute monocytic leukemia), MCF7 (mammary gland adenocarcinoma), SKOV3 (ovarian adenocarcinoma), PC3 (prostate adenocarcinoma) and CCD1079SK (fibroblast, noncancerous but proliferating) (see FIG. 2 and Table 2). Results are expressed in Table 2 as % viability (means±standard deviation of three replicates), with LD50/IC50 values in Tables 3 and 6. […] The maximum DMSO concentration was 1% at 100 μg/ml with 5% SDS used as a known toxic inducer.
(§2) Experimental: Stock solutions of the test compounds were prepared in dimethylsulfoxide (DMSO) at 10 mg/ml and stored at −20° C. until used. This preparation ensures that the DMSO content delivered to cells in culture never exceeds 1%. Appropriate cells number, based on previous assays, were seeded in 96 well plate and incubated with test compounds (up to 8 log concentrations, 0 to 50 or 100 μg/ml) for 72 h. Cell proliferation was initially assessed using a standard colorimetric indicator of metabolic activity (CIMA) assay. In this assay, reduction of yellow tetrazolium salt (MTT) to purple formazan by mitochondrial reductases enzymes in viable cells were measured as change in absorbance (λ=500-600).
(§3) Seven human cell lines were evaluated: U373 (glioblastoma-astrocytoma), A549 (lung carcinoma), PC3 (prostate adenocarcinoma), THP1 (acute monocytic leukemia), MDA-MB-231 (mammary gland adenocarcinoma), SKOV3 (ovarian adenocarcinoma) and CCD1079Sk (normal skin fibroblast) cells.

[2] = system: U373 (glioblastoma-astrocytoma); assay: as above; conditions: U373
Method: as §1, §2, §3

[3] = system: CCD1079SK (fibroblast, noncancerous but proliferating); assay: as above; conditions: CCD
Method: as §1, §2, §3

A549 (lung carcinoma) = assay: as above; conditions: A549
Method: as §1, §2, §3

[4] = system: THP-1 (acute monocytic leukemia); assay: as above; conditions: THP-1
Method: as §1, §2, §3

[5] = system: PC3 (prostate adenocarcinoma); assay: as above; conditions: PC3
Method: as §1, §2, §3

[6] = system: MDA-MB-231 (mammary gland adenocarcinoma); assay: CIMA assay (MTT, 72 h); conditions: MDA-MB
Method: as §2, with “Appropriate cells number, based on previous assays, were seeded in 96 well plate and incubated with test compounds (up to 8 log concentrations, 0 to 50 or 100 μg/ml) for 72 h.” left out
as §3

CCCCCC(O)C(O)/C=C/C1CCCCCCCC(=O)O1 (racemic) [compound (I), 12,13-dihydroxy-10-octadecen-9-olide]
fold change viability (AVG) ([1]; 1 ug/mL): 1.04
fold change viability (AVG) ([1]; 10 ug/mL): 1.05
fold change viability (AVG) ([1]; 50 ug/mL): 1.01
fold change viability (AVG) ([1]; 100 ug/mL): 0.92
fold change viability (AVG) ([2]; 1 ug/mL): 0.92
fold change viability (AVG) ([2]; 10 ug/mL): 0.86
fold change viability (AVG) ([2]; 50 ug/mL): 0.69
fold change viability (AVG) ([2]; 100 ug/mL): 0.03
fold change viability (AVG) ([3]; 1 ug/mL): 1.00
fold change viability (AVG) ([3]; 10 ug/mL): 0.92
fold change viability (AVG) ([3]; 50 ug/mL): 0.99
fold change viability (AVG) ([3]; 100 ug/mL): 0.18
fold change viability (AVG) (A549 (lung carcinoma); 1 ug/mL): 1.11
fold change viability (AVG) (A549 (lung carcinoma); 10 ug/mL): 1.09
fold change viability (AVG) (A549 (lung carcinoma); 50 ug/mL): 1.08
fold change viability (AVG) (A549 (lung carcinoma); 100 ug/mL): 0.72
fold change viability (AVG) ([4]; 1 ug/mL): 1.09
fold change viability (AVG) ([4]; 10 ug/mL): 0.95
fold change viability (AVG) ([4]; 50 ug/mL): 0.77
fold change viability (AVG) ([4]; 100 ug/mL): 0.50
fold change viability (AVG) ([5]; 1 ug/mL): 1.03
fold change viability (AVG) ([5]; 10 ug/mL): 0.96
fold change viability (AVG) ([5]; 50 ug/mL): 1.01
fold change viability (AVG) ([5]; 100 ug/mL): 0.19
fold change viability (AVG) ([6]; 1 ug/mL): 1.10
fold change viability (AVG) ([6]; 10 ug/mL): 1.05
fold change viability (AVG) ([6]; 50 ug/mL): 0.72
fold change viability (AVG) ([6]; 100 ug/mL): 0.21

CCCCCCCCCCCCOS(=O)(=O)[O-].[Na+] [SDS, reference compound]
average cell viability ([6]; positive control, 250 ug/ml): 14

From patent US20210323940A1 (OCEANS LTD., priority 2018, published 2021)
